Reference: a compilation of properties of binary mixtures (doi:10.1021/acs.jced.9b00875)

Assay: xn = mol fraction of the nth substance listed
Details: 101 kPa

CNC(C)=O + CCCC[n+]1ccn(C)c1.F[B-](F)(F)F
Details	speed of sound [m/s]	viscosity [mPa·s]
293.15 K, x2 = 0	1406.2	5.56
293.15 K, x2 = 0.2042	1479.3	8.7
293.15 K, x2 = 0.27	1497.8	10.6
293.15 K, x2 = 0.3564	1517.3	14.28
293.15 K, x2 = 0.4992	1540.3	24.5
293.15 K, x2 = 0.5552	1546.9	30.2
293.15 K, x2 = 0.6389	1555.3	41
293.15 K, x2 = 0.714	1561.4	53.3
293.15 K, x2 = 0.8495	1569.8	82.6
293.15 K, x2 = 0.9302	1573.9	104.9
298.15 K, x2 = 0	1385.3	4.77
298.15 K, x2 = 0.1409	1440	6.18
298.15 K, x2 = 0.27	1480.6	8.7
298.15 K, x2 = 0.3564	1501.1	11.64
298.15 K, x2 = 0.4343	1516	15.46
298.15 K, x2 = 0.5552	1532.7	24.2
298.15 K, x2 = 0.6389	1542	32.6
298.15 K, x2 = 0.714	1548.6	42.1
298.15 K, x2 = 0.8495	1558	64.5
298.15 K, x2 = 0.9302	1562.5	81.6
303.15 K, x2 = 0	1366.3	4.09
303.15 K, x2 = 0.0711	1395.9	4.92
303.15 K, x2 = 0.2042	1444.8	6.38
303.15 K, x2 = 0.27	1464.5	7.32
303.15 K, x2 = 0.3564	1486	9.13
303.15 K, x2 = 0.4343	1501.4	11.57
303.15 K, x2 = 0.4992	1511.8	14.39
303.15 K, x2 = 0.5552	1519.2	17.5
303.15 K, x2 = 0.6389	1529.2	23.6
303.15 K, x2 = 0.714	1536.2	30.7
303.15 K, x2 = 0.7774	1541.2	38.1
303.15 K, x2 = 0.8495	1546.2	48.2
303.15 K, x2 = 0.9302	1551	62
308.15 K, x2 = 0.0711	1380.7	4.25
308.15 K, x2 = 0.1409	1408.3	4.86
308.15 K, x2 = 0.2042	1430.4	5.48
308.15 K, x2 = 0.27	1450.3	6.31
308.15 K, x2 = 0.3564	1472.3	7.85
308.15 K, x2 = 0.4343	1488.2	9.86
308.15 K, x2 = 0.4992	1498.9	12.11
308.15 K, x2 = 0.5552	1506.5	14.56
308.15 K, x2 = 0.6389	1516.8	19.2
308.15 K, x2 = 0.7774	1529.2	30.2
308.15 K, x2 = 0.8495	1534.1	37.8
308.15 K, x2 = 0.9302	1539.1	48
313.15 K, x2 = 0	1336.4	3.08
313.15 K, x2 = 0.0711	1367.7	3.76
313.15 K, x2 = 0.1409	1395.4	4.34
313.15 K, x2 = 0.2042	1417.6	4.86
313.15 K, x2 = 0.27	1437.6	5.5
313.15 K, x2 = 0.3564	1459.7	6.64
313.15 K, x2 = 0.4343	1475.8	8.12
313.15 K, x2 = 0.5552	1494.8	11.64
313.15 K, x2 = 0.6389	1505	15.21
313.15 K, x2 = 0.714	1512	19.4
313.15 K, x2 = 0.7774	1517.5	23.7
313.15 K, x2 = 0.8495	1522.3	29.7
313.15 K, x2 = 0.9302	1527	37.8
318.15 K, x2 = 0	1325.2	2.76
318.15 K, x2 = 0.2042	1406.7	4.13
318.15 K, x2 = 0.27	1426.7	4.62
318.15 K, x2 = 0.3564	1448.6	5.5
318.15 K, x2 = 0.4343	1464.7	6.68
318.15 K, x2 = 0.4992	1476	8.04
318.15 K, x2 = 0.5552	1484.1	9.55
318.15 K, x2 = 0.6389	1493.8	12.51
318.15 K, x2 = 0.714	1501	16
318.15 K, x2 = 0.7774	1506.1	19.7
318.15 K, x2 = 0.8495	1510.8	24.7
318.15 K, x2 = 0.9302	1514.9	31.6

CCCC[n+]1ccn(C)c1.F[B-](F)(F)F + CNC(C)=O
x1 = 1
Details	speed of sound [m/s]	viscosity [mPa·s]
298.15 K	1565.8	98.9
303.15 K	1554.5	76.3
308.15 K	1542.7	58.4
313.15 K	1530.5	46.2
318.15 K	1518	38.7
